Assay results published in US10023570B2 (Array BioPharma, Inc., priority 2015, dated 2018).
Where two headings read alike, the source gives them in different places.

What was measured:
[1] = target: human KDR protein in HEK-293 cells (Homo sapiens (Human), UniProt P35968); assay: KDR Cell Assay (phospho-KDR in HEK-293 cells expressing inducible KDR); type: cell-based; details: pKDR Cell HEK 10% FBS IC50, HEK-293 cells expressing inducible KDR, VEGF stimulated
Summary of the method: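 HEK-293 cells with inducible human KDR were treated with compound for 1 h in DMEM (0.25% DMSO final), then lysed. Phospho-KDR was quantified by Meso Scale immunoassay, expressed as percent of control, and IC50 taken where a 4-parameter logistic fit crossed 50 POC.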

[2] = target: Kif5b-RET fusion protein in HEK-293 cells (Homo sapiens, UniProt P07949); assay: cell-based
[3] = target: N-terminal GST tagged recombinant human RET cytoplasmic domain (aa 658-end), wild type RET kinase (Homo sapiens (Human), UniProt P07949); assay: RET Enzyme Assay (HTRF KinEASE-TK), wild type RET; type: biochemical; details: wild type RET, 1 mM ATP
[4] = HEK-293 cells expressing Kif5b-RET, phospho-RET(Tyr1062), read-out: KIF5B-RET pTYR1062 Cell IC50
[5] = HEK-293 cells expressing Kif5b-RET, read-out: KIF5B-RET pTYR1062 Cell IC50

human KDR protein in HEK-293 cells, sequence (P35968 20-1356): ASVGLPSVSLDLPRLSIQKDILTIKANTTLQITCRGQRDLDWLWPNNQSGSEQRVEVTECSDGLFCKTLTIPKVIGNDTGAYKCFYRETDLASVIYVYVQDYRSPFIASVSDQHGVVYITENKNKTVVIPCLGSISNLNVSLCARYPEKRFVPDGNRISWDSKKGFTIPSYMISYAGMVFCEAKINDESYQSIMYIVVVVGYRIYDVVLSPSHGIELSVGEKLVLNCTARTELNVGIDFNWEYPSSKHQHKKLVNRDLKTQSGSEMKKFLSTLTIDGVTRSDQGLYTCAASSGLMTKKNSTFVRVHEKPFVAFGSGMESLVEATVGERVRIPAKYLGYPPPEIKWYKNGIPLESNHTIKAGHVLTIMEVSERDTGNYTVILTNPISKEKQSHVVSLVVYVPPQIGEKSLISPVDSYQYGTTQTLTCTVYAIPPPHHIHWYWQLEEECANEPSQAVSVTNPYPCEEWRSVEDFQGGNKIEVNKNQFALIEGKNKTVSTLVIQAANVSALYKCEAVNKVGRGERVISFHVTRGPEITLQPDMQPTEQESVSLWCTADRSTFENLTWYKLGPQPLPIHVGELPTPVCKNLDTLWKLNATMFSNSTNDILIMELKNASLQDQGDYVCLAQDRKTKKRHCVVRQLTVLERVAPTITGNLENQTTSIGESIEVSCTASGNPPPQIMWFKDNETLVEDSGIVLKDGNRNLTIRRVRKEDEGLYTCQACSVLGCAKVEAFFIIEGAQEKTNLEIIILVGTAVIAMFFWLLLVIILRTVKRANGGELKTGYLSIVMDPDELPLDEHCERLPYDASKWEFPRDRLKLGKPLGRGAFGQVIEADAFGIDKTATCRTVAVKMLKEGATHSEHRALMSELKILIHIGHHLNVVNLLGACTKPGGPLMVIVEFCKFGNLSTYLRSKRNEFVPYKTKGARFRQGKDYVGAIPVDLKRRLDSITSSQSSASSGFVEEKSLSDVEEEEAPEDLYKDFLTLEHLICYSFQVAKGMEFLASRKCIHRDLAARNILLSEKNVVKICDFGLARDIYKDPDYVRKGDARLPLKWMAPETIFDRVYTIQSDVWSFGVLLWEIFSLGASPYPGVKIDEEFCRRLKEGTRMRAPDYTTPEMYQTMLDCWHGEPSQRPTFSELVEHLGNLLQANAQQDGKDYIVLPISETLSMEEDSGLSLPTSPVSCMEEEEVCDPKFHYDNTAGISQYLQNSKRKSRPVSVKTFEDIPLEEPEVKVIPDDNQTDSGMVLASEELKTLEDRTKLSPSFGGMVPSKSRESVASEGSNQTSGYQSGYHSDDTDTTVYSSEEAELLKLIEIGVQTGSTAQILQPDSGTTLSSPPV
N-terminal GST tagged recombinant human RET cytoplasmic domain (aa 658-end), wild type RET kinase, sequence (P07949 658-1114): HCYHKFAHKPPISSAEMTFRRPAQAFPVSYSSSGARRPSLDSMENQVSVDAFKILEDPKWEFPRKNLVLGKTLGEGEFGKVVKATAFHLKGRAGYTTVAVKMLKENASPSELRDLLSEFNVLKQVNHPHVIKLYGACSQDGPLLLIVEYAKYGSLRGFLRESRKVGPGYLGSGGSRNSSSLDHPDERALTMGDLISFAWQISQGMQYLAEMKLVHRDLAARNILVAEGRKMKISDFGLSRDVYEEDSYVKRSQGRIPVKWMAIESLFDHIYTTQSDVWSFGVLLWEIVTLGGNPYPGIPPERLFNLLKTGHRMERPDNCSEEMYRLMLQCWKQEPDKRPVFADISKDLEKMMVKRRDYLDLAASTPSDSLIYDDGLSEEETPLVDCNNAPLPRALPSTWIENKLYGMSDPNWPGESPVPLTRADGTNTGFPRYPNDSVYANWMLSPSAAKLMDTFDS
Kif5b-RET fusion protein in HEK-293 cells, sequence (P07949 29-1114 limits assumed): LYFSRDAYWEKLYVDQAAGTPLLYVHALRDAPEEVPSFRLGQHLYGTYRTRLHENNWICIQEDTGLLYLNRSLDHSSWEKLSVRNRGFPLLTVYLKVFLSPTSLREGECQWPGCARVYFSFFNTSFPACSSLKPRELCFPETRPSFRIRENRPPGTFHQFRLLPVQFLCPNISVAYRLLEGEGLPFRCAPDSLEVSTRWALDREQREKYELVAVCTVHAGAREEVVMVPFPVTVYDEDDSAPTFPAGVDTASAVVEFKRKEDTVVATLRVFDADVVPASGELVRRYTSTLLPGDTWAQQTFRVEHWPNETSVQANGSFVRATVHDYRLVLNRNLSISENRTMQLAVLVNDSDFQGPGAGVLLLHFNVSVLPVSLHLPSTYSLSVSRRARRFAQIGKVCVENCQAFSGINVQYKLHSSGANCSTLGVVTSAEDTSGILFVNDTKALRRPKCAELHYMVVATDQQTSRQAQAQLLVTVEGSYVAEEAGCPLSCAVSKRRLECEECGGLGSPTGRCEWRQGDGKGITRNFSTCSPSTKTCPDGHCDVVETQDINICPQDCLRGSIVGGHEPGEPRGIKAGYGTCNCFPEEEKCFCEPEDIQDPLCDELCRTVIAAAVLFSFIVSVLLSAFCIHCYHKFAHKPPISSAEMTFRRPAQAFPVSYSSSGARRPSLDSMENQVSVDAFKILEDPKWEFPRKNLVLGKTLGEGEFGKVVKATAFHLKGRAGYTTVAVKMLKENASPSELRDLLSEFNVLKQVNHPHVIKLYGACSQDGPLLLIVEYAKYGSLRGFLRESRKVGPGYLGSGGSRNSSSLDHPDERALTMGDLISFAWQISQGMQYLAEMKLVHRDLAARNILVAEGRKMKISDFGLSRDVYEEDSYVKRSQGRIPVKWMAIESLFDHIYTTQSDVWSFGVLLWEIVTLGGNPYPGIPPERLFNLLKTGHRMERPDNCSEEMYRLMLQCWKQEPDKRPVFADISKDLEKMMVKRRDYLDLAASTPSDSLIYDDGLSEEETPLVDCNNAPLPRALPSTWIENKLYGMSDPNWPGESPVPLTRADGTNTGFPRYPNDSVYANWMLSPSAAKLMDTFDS

Compound	IC50 ([1]; 10% FBS)	IC50 [2, 4]	IC50 [3]	IC50 [1]	IC50 [2, 5]	IC50 [2]
CN(C)C(=O)NC1CCN(c2ccc(-c3cc(-c4cnn(C)c4)cn4ncc(C#N)c34)cn2)CC1 [Example 186, 3-(1-(5-(3-cyano-6-(1-methyl-1H-pyrazol-4-yl)pyrazolo[1,5-a]pyridin-4-yl)pyridin-2-yl)piperidin-4-yl)-1,1-dimethylurea]	451 nM	22.5 nM	14.3 nM	–	–	–
CCc1nn(C)cc1-c1cc(-c2ccc(N3CCN(Cc4ccccc4)CC3)nc2)c2c(C#N)cnn2c1 [Example 610, 4-(6-(4-benzylpiperazin-1-yl)pyridin-3-yl)-6-(3-ethyl-1-methyl-1H-pyrazol-4-yl)pyrazolo[1,5-a]pyridine-3-carbonitrile]	–	–	48.1 nM	4440 nM	109 nM	–
CONC(=O)C1CCN(c2ccc(-c3cc(-c4cnn(C)c4)cn4ncc(C#N)c34)cn2)CC1 [Example 564, 1-(5-(3-cyano-6-(1-methyl-1H-pyrazol-4-yl)pyrazolo[1,5-a]pyridin-4-yl)pyridin-2-yl)-N-methoxypiperidine-4-carboxamide]	–	–	6.4 nM	740 nM	26.2 nM	–
CC(C)CNC(=O)N1CCN(c2ccc(-c3cc(-c4cnn(C)c4)cn4ncc(C#N)c34)cn2)CC1 [Example 133, 4-(5-(3-cyano-6-(1-methyl-1H-pyrazol-4-yl)pyrazolo[1,5-a]pyridin-4-yl)pyridin-2-yl)-N-isobutylpiperazine-1-carboxamide]	147 nM	1.7 nM	4.3 nM	–	–	–
COC(CN1CCN(c2ccc(-c3cc(-c4cnn(C)c4)cn4ncc(C#N)c34)cn2)CC1)C(C)C (stereo not drawn) [Example 413, 4-(6-(4-(2-methoxy-3-methylbutyl)piperazin-1-yl)pyridin-3-yl)-6-(1-methyl-1H-pyrazol-4-yl)pyrazolo[1,5-a]pyridine-3-carbonitrile]	–	–	15.6 nM	549 nM	29.1 nM	–
CC(C)CC(=O)N1CCN(c2ccc(-c3cc(-c4cnn(C)c4)cn4ncc(Cl)c34)cn2)CC1 [Example 646, 1-(4-(5-(3-chloro-6-(1-methyl-1H-pyrazol-4-yl)pyrazolo[1,5-a]pyridin-4-yl)pyridin-2-yl)piperazin-1-yl)-3-methylbutan-1-one]	–	–	15.6 nM	1960 nM	45.7 nM	–
Cn1cc(-c2cc(-c3ccc(N4CCN(C(=O)NC(C)(C)C)CC4)nc3)c3c(C#N)cnn3c2)cn1 [Example 128, N-(tert-butyl)-4-(5-(3-cyano-6-(1-methyl-1H-pyrazol-4-yl)pyrazolo[1,5-a]pyridin-4-yl)pyridin-2-yl)piperazine-1-carboxamide]	555 nM	11.1 nM	11.6 nM	–	–	–
C[C@H](CO)Cn1cc(-c2cc(-c3ccc(N4CCN(Cc5ccccc5)CC4)nc3)c3c(C#N)cnn3c2)cn1 [Example 593, (S)-4-(6-(4-benzylpiperazin-1-yl)pyridine-3-yl)-6-(1-(3-hydroxy-2-methylpropyl)-1H-pyrazol-4-yl)pyrazolo[1,5-a]pyridine-3-carbonitrile]	–	–	13.3 nM	154 nM	12.4 nM	–
CCC1(C(=O)NCCC(F)(F)F)CCN(c2ccc(-c3cc(-c4cnn(C)c4)cn4ncc(C#N)c34)cn2)CC1 [Example 255, 1-(5-(3-cyano-6-(1-methyl-1H-pyrazol-4-yl)pyrazolo[1,5-a]pyridin-4-yl)pyridin-2-yl)-4-ethyl-N-(3,3,3-trifluoropropyl)piperidine-4-carboxamide]	1090 nM	7.3 nM	9.1 nM	–	–	–
Cn1cc(-c2cc(-c3ccc(N4CCC(C(=O)NCC(F)(F)F)CC4)nc3)c3c(C#N)cnn3c2)cn1 [Example 243, 1-(5-(3-cyano-6-(1-methyl-1H-pyrazol-4-yl)pyrazolo[1,5-a]pyridin-4-yl)pyridin-2-yl)-N-(2,2,2-trifluoroethyl)piperidine-4-carboxamide]	103 nM	5.4 nM	5.6 nM	–	–	–
CC(C)C[C@@H](O)C(=O)N1CCN(c2ccc(-c3cc(-c4cnn(C)c4)cn4ncc(C#N)c34)cn2)CC1 [Example 53, (R)-4-(6-(4-(2-hydroxy-4-methylpentanoyl)piperazin-1-yl)pyridin-3-yl)-6-(1-methyl-1H-pyrazol-4-yl)pyrazolo[1,5-a]pyridine-3-carbonitrile]	305 nM	9.9 nM	4.4 nM	–	–	–
CC(C)CC(=O)N1CCN(c2ccc(-c3cc(-c4cnn(C)c4)cn4ncc(C#N)c34)cn2)CC1 [Example 75, 6-(1-methyl-1H-pyrazol-4-yl)-4-(6-(4-(3-methylbutanoyl)piperazin-1-yl)pyridin-3-yl)pyrazolo[1,5-a]pyridine-3-carbonitrile]	392 nM	7 nM	6.3 nM	–	–	–
C[C@H](O)C(=O)N1CCN(c2ccc(-c3cc(-c4cnn(C)c4)cn4ncc(C#N)c34)cn2)CC1 [Example 30, (S)-4-(6-(4-(2-hydroxypropanoyl)piperazin-1-yl)pyridin-3-yl)-6-(1-methyl-1H-pyrazol-4-yl)pyrazolo[1,5-a]pyridine-3-carbonitrile]	921 nM	124 nM	22.1 nM	–	–	–
CC(C)C(=O)NC1(C)CCN(c2ccc(-c3cc(-c4cnn(C)c4)cn4ncc(C#N)c34)cn2)CC1 [Example 203]	560 nM	5.2 nM	5.8 nM	–	–	–
CCN(CC)C(=O)N1CCN(c2ccc(-c3cc(-c4cnn(C)c4)cn4ncc(C#N)c34)cn2)CC1 [Example 98, 4-(5-(3-cyano-6-(1-methyl-1H-pyrazol-4-yl)pyrazolo[1,5-a]pyridin-4-yl)pyridin-2-yl)-N,N-diethylpiperazine-1-carboxamide]	1600 nM	13 nM	3.6 nM	–	–	–
COCC(C)NC(=O)C1CCN(c2ccc(-c3cc(-c4cnn(C)c4)cn4ncc(C#N)c34)cn2)CC1 (stereo not drawn) [Example 232, 1-(5-(3-cyano-6-(1-methyl-1H-pyrazol-4-yl)pyrazolo[1,5-a]pyridin-4-yl)pyridin-2-yl)-N-(1-methoxypropan-2-yl)piperidine-4-carboxamide]	812 nM	24.4 nM	12.1 nM	–	–	–
CC(C)C(O)CN1CCN(c2ccc(-c3cc(-c4cnn(C)c4)cn4ncc(C#N)c34)cn2)CC1 (stereo not drawn) [Example 160, 4-(6-(4-(2-hydroxy-3-methylbutyl)piperazin-1-yl)pyridin-3-yl)-6-(1-methyl-1H-pyrazol-4-yl)pyrazolo[1,5-a]pyridine-3-carbonitrile]	192 nM	11 nM	13.6 nM	–	–	–
CCC1(C(=O)N[C@H](C)C(F)(F)F)CCN(c2ccc(-c3cc(-c4cnn(C)c4)cn4ncc(C#N)c34)cn2)CC1 [Example 257, (R)-1-(5-(3-cyano-6-(1-methyl-1H-pyrazol-4-yl)pyrazolo[1,5-a]pyridin-4-yl)pyridin-2-yl)-4-ethyl-N-(1,1,1-trifluoropropan-2-yl)piperidine-4-carboxamide]	1350 nM	9.3 nM	14.9 nM	–	–	–
CC[C@H](CO)NC(=O)N1CCN(c2ccc(-c3cc(-c4cnn(C)c4)cn4ncc(C#N)c34)cn2)CC1 [Example 96, (R)-4-(5-(3-cyano-6-(1-methyl-1H-pyrazol-4-yl)pyrazolo[1,5-a]pyridin-4-yl)pyridin-2-yl)-N-(1-hydroxybutan-2-yl)piperazine-1-carboxamide]	1560 nM	51.9 nM	6.3 nM	–	–	–
C[C@@H](NC(=O)C1CCN(c2ccc(-c3cc(-c4cnn(C)c4)cn4ncc(C#N)c34)cn2)CC1)C(F)(F)F [Example 233, (R)-1-(5-(3-cyano-6-(1-methyl-1H-pyrazol-4-yl)pyrazolo[1,5-a]pyridin-4-yl)pyridin-2-yl)-N-(1,1,1-trifluoropropan-2-yl)piperidine-4-carboxamide]	511 nM	27.3 nM	13.6 nM	–	–	–
CCNC(=O)N1CCN(c2ccc(-c3cc(-c4cnn(C)c4)cn4ncc(C#N)c34)cn2)CC1 [Example 134, 4-(5-(3-cyano-6-(1-methyl-1H-pyrazol-4-yl)pyrazolo[1,5-a]pyridin-4-yl)pyridin-2-yl)-N-ethylpiperazine-1-carboxamide]	320 nM	11.5 nM	5.5 nM	–	–	–
C[C@H](O)[C@@H](C)N1CCN(c2ccc(-c3cc(-c4cnn(C)c4)cn4ncc(C#N)c34)cn2)CC1 (racemic) [Example 165, rac-4-(6-(4-((2R*,3S*)-3-hydroxybutan-2-yl)piperazin-1-yl)pyridin-3-yl)-6-(1-methyl-1H-pyrazol-4-yl)pyrazolo[1,5-a]pyridine-3-cartonitrile]	2020 nM	–	24.8 nM	–	–	28.9 nM
CCC1(C(=O)NC(C)C)CCN(c2ccc(-c3cc(-c4cnn(C)c4)cn4ncc(C#N)c34)cn2)CC1 [Example 256, 1-(5-(3-cyano-6-(1-methyl-1H-pyrazol-4-yl)pyrazolo[1,5-a]pyridin-4-yl)pyridin-2-yl)-4-ethyl-N-isopropylpiperidine-4-carboxamide]	735 nM	4.5 nM	12.9 nM	–	–	–
CC(C)C(=O)N[C@@H]1CCCN(c2ccc(-c3cc(-c4cnn(C)c4)cn4ncc(C#N)c34)cn2)C1 [Example 226, (R)—N-(1-(5-(3-cyano-6-(1-methyl-1H-pyrazol-4-yl)pyrazolo[1,5-a]pyridin-4-yl)pyridin-2-yl)piperidin-3-yl)isobutyramide]	1170 nM	57.1 nM	31.8 nM	–	–	–
